Where a SMILES comes first, the peptide text is derived from it. Bridges are numbered along the chain shown (N, C = ends).

The values that follow come from publication PMC8607231, “Generation of KS-133 as a Novel Bicyclic Peptide with a Potent and Selective VIPR2 Antagonist Activity that Counteracts Cognitive Decline in a Mouse Model of Psychiatric Disorders” (Frontiers in Pharmacology, 2021).

In data set [1] the test system is VIPR2 activation-induced phosphorylation of CREB. As to the kind of experiment: Western blot of pCREB in prefrontal cortex of neonatal mice after s.c. injection. It counts as in vivo, mouse. Particulars: ICR mice at P12, KS-133 1 nmol/g s.c. simultaneously with Ro 25-1553 0.4 nmol/g, 1 h after injection. Here is the method: For western blot analysis, ICR neonatal mice at P12 (7–10 g body weight) were subcutaneously (s.c.) injected with KS-133 (1 nmol/g) and Ro 25-1553 (0.4 nmol/g, Peptide Institute, Inc. Osaka, Japan), a selective VIPR2 agonist ([Gourlet et al., 1997]; [Harmar et al., 2012]), and adult C57BL/6J mice at 8 weeks of age (20–30 g body weight) were intranasally (i.n.) injected with KS-133 (20 nmol/mouse) and BAY 55-9837 (20 µg/mouse, Tocris Bioscience, Bristol, United Kingdom), another selective VIPR2 agonist ([Tsutsumi et al., 2002]; [Tian et al., 2019]). The dosages of these drugs were determined in a preliminary experiment using the change in phosphorylation of cAMP-response element-binding protein (CREB) as an index. Ro 25-1553 was dissolved in phosphate-buffered saline (PBS) and BAY 55-9837 was dissolved in distilled water. KS-133 was dissolved in saline with 1% dimethyl sulfoxide (DMSO; #13445-74, Nacalai Tesque, Inc., Kyoto, Japan) for s.c. injection or saline with 5% DMSO and 5 mg/ml poly-L-arginine (#P7762, Sigma-Aldrich, St. Louis, MO, United States) for i.n. injection. […]
FIGURE 4 Effects of subcutaneous (A) and intranasal (B) administration of KS-133 on VIPR2 activation-induced phosphorylation of CREB in the prefrontal cortex of mice. Phospho-CREB (pCREB), total CREB, and β-actin levels were analyzed by western blotting. […]
(In western blotting, separated proteins are transferred to a membrane and probed.)

Data set [2] can be described thus: Peptide stability in rat plasma (RP-HPLC). The data set is classed as in vitro ADME. Here is the method:
Each peptide (10 mM, 1 μl) was incubated with rat plasma (20 μl) prepared in-house. Immediately after mixing with plasma and after 24 h of incubation at 37°C, 80% acetonitrile (200 μl) was added to extract VIpep-3 and acetonitrile (200 μl) was added to extract KS-132, KS-133(monocyclic), and KS-133. The mixture was stored for 10 min on ice and then centrifuged at 20,000 × g for 10 min at 4°C. The supernatant was recovered and directly applied to RP-HPLC to determine the remaining amount of unmodified peptides in the sample.
The stability of peptides was evaluated in rat plasma. A peptide was incubated in rat plasma at 37°C for 0 and 24 h and the remaining amount of peptide was determined by RP-HPLC. By comparison with the peak area of the peptide, the remaining amount of the peptide after plasma incubation was estimated. […] KS-133(monocyclic) may form a pseudo bicyclic structure by ionic bond interaction between side chains of Lys and Asp.

Where [3] appears, read: rat plasma, immediately after mixing.

In the case of `CC[C@H](C)[C@H](NC(=O)[C@H](CC(C)C)NC(=O)[C@@H]1CC(=O)NCCCC[C@@H]2NC(=O)[C@@H]3CCCN3C(=O)[C@H](CC(C)C)NC(=O)[C@H](Cc3ccc(O)cc3)NC(=O)[C@@H]3CCCN3C(=O)[C@@H]3CCCN3C(=O)[C@@H](NC(C)=O)CSSC[C@H](NC(=O)[C@H](CC(C)C)NC(=O)[C@H](Cc3ccc(O)cc3)NC2=O)C(=O)N1)C(N)=O` [KS-133, Ac-c[Cys-Pro-Pro-Tyr-Leu-Pro-c(Lys-Tyr-Leu-Cys]-Asp)-Leu-Ile-NH2] (Ac-CPPYLPKYLCDLI-NH2; disulfide 1-10; lactam 7-11), the “Effect on Ro 25-1553-induced increase in CREB phosphorylation” value in data set [1] is “suppressed the Ro 25-1553-induced increase in CREB phosphorylation”. Besides, in data set [2] (37°C, 24 h), the “Stability in rat plasma” value is “highly stable for at least up to 24 h”. Also, the “RP-HPLC peak area, Input (NT)” value in data set [2] (no plasma treatment) is given as 161695. Moreover, in data set [2] (rat plasma, 37°C, 24 h), the “RP-HPLC peak area, incubation time 24 h” value is recorded as 163537. Also, the remaining at 24 h, 0.476 mM in data set [2] (rat plasma, 37°C, 24 h, read-out: Residual rate, incubation time 24 h) stood at 99%. In data set [2] (setting [3]), the “RP-HPLC peak area, immediately after mixing” value is recorded as 165254 and the “Residual rate, immediately after mixing” value is 100%.
